Read-outs that look alike come from different tables or passages of the source.
Assays:
PBP1b = PBP1b (Escherichia coli, UniProt P02919); assay: Assays for transglycosylase PBP1b; format: biochemical
Description: The protein was purified as described. Chen, L., Men, H., Ha, S., Ye, X.-Y., Brunner, L., Hu, Y., Walker, S. Biochemistry 2002; Tetrahedron 58, 6585 (2002). Assays were carried out by separately incubating varying amounts of ^14C-GlcNAc-labeled C35 Lipid II (specific activity=273 cpm/pmol) and inhibitors in eppendorf tubes containing 9 μL of buffer (50 mM HEPES at pH 7.5, 10 mM CaCl2, 1000 U/mL penicillin G, 0.2 mM decyl PEG, and 11% DMSO), and 1 μL PBP1b (from a solution freshly prepared by diluting the 50% glycerol stock 20-fold into 5 mM Tris buffer, pH 8.0, containing 8 mM decyl PEG) for 10 min. Reactions were started by adding 1 μL of the above PBP1b mixture to the substrate solution, and were typically stopped after 15 min by adding 10 μL ice cold 10 mM Tris (pH 8.0) containing 0.2% Triton X-100. Reactions were left on ice until spotted on cellulose chromatography paper (3M Whatman chromatography paper). Products and starting material were separated following the works of Anderson et al. using chromatography (isobutyric acid: 1N NH4OH=5:3) and quantitated by scintillation counting. Biochemistry 53, 881 (1965).

OGT = biological target: T1, OGT (Homo sapiens, UniProt O15294); assay: Assay for OGT; format: biochemical
T1 construct: His tag; made in house; host or cells: E. coli BL21 (DE3) (Novagen)
T1 sequence (O15294 51-920 isoform O15294-2 limits assumed): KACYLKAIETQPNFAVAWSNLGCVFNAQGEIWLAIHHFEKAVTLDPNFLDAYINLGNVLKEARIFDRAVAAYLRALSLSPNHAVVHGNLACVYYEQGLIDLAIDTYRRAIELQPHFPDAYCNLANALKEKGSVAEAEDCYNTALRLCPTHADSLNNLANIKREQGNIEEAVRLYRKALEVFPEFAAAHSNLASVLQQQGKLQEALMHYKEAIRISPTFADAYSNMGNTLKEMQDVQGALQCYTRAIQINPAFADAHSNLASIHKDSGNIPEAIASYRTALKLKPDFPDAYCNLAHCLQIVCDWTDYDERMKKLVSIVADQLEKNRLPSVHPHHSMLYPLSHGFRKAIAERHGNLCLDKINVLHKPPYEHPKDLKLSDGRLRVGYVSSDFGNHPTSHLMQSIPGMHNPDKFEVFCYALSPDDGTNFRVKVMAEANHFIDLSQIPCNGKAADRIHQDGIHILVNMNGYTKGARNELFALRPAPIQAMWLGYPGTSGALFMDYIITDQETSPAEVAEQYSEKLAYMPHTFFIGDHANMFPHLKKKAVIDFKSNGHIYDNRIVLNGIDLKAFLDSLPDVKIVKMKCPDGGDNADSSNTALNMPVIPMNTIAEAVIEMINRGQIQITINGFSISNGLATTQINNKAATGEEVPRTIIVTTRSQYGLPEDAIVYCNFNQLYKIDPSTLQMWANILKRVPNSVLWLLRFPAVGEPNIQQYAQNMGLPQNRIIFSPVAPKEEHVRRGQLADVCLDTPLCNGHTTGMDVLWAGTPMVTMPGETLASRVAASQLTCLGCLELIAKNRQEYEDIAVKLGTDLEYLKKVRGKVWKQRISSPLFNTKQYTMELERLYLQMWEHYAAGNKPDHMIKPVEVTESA
Description: The mitochondrial splice variant of OGT, minus the first 50 amino acids, was cloned into pET 32b, and expressed from Novagen BL21 (DE3) cells. The pellet was lysed with B-PER (Pierce) and rLysozyme (Novagen) and the soluble fraction was purified using His-Bind Resin (Novagen). Assay reaction buffer was 10 mM Tris pH 7.4 with 100 μg/mL BSA. […] Inhibitors tested were added in 0.5 μL of DMSO and the final reaction volume was 20 μL. The reactions were quenched after 50 min at room temperature with 10 μL of formic acid and spotted onto phosphocellulose (Whatman P81) paper disks. The disks were washed for 3×5 min with 1% phosphoric acid, 1 min with acetone and dried before counting. The samples were measured by liquid scintillation counting.

MurG [1] = biological target: T2, MurG (Escherichia coli, UniProt P17443); assay: radiometric kinetic assay (incorporation of 14C-GlcNAc into Lipid II), secondary screen and IC50; format: biochemical, E. coli; details: for inhibition pattern with respect to UDP-GlcNAc: kinetic analysis
GtfB = GtfB (Amycolatopsis orientalis, UniProt P96559); assay: biochemical
Description: Inhibitors, dissolved in DMSO, were added at the indicated concentrations to 20 μL reactions containing 50 nM GtfB, 2 mM UDP-glucose, 75 mM Tricine (pH 9), 4 mM TCEP and 600 μM vancomycin aglycone. For consistency, all reactions contained 5% DMSO. Reactions were incubated at 37° C. for 1.5 hr, then quenched with 20 μL cold methanol and centrifuged at 13,000 rpm for 10 min. Reaction mixtures were resolved by analytical HPLC, using a gradient of 0-45% acetonitrile in water/0.1% TFA over 15 min, at a flow rate of 1 mL per minute. Product formation was monitored by UV absorbance at 285 nm.

MurG [2] = biological target: T2, MurG; details: biotin-capture assay, C10-Lipid I acceptor; cited from earlier work
MurG [3] = biological target: T2, MurG; assay: fluorescence polarization displacement assay with labeled donor F1; format: binding, E. coli; details: for Signal change at 25 μM (drop in fluorescence polarization): 25 μM competitor; for Kd: read-out: Dissociation constants

Sequence of PBP1b (P02919 whole entry): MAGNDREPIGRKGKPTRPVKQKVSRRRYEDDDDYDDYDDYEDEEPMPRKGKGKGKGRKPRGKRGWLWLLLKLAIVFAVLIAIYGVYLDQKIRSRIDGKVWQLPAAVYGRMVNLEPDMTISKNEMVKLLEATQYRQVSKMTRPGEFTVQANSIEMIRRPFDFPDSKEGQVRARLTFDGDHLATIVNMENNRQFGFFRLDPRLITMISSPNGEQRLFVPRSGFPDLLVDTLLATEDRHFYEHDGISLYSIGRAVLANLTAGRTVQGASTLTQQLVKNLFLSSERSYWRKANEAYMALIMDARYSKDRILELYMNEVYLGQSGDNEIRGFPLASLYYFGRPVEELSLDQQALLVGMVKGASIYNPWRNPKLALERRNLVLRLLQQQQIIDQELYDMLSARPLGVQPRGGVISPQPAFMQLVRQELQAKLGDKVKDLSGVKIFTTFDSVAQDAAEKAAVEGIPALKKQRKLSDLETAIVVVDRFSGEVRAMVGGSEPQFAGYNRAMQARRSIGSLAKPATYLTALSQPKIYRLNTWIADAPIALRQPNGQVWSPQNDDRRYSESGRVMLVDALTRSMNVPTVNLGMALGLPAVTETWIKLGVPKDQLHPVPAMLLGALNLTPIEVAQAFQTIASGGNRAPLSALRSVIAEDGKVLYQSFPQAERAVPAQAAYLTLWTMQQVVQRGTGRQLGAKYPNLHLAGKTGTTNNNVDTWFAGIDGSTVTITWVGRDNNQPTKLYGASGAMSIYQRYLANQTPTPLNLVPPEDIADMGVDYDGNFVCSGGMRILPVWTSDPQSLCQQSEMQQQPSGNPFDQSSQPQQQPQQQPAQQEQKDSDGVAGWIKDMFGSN
Sequence of GtfB (P96559 whole entry): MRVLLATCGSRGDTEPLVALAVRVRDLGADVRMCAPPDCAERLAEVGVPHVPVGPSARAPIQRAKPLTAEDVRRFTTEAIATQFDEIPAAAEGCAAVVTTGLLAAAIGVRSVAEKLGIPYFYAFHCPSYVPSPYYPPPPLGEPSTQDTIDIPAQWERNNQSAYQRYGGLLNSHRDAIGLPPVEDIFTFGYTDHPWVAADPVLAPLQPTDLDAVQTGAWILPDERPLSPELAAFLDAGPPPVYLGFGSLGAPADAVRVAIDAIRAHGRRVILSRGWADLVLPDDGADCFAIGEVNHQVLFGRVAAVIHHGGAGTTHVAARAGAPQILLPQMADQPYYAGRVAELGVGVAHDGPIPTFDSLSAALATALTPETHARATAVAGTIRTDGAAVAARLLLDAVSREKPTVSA
T2 sequence (P17443 whole entry): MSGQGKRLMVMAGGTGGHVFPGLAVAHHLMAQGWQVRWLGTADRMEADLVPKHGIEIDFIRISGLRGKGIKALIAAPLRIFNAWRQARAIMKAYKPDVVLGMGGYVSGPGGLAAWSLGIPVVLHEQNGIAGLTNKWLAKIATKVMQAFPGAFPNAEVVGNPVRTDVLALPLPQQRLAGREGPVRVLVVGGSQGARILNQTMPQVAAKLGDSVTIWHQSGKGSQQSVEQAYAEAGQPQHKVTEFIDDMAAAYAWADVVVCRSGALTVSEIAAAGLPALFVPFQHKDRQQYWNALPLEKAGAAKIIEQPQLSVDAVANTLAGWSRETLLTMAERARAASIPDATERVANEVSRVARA

## O=C1NC(=O)N(c2ccc(Cl)cc2)C(=O)/C1=C/c1ccc(Br)o1 [Compound 4]
PBP1b
  IC50: > 100 µM
OGT
  IC50: > 100 µM
MurG [1]
  IC50: 6.4 µM
GtfB
  IC50: 11 µM

## O=C(O)c1ccc(N2C(=O)/C(=C/c3ccc(-c4ccc(Br)cc4)o3)C=C2c2ccccc2)cc1 [Compound 7]
PBP1b; read-out: IC50 PBP1b
  IC50: > 100 µM
OGT; read-out: IC50 OGT
  IC50: > 100 µM
MurG [1]
  IC50: 5.4 µM
  inhibition pattern with respect to UDP-GlcNAc: competitive inhibitors
GtfB
  IC50: 100 µM

## Cc1cc(/C=C2\C(=O)NC(=S)N(c3cccc(Cl)c3)C2=O)c(C)n1-c1cc(C(=O)O)cc(C(=O)O)c1 [Compound 5]
PBP1b
  IC50: > 100 µM
OGT
  IC50: > 100 µM
MurG [1]
  IC50: 1.4 µM
  inhibition pattern with respect to UDP-GlcNAc: competitive inhibitors
GtfB
  IC50: 50 µM

## Nc1ncnc2c1ncn2[C@@H]1O[C@H](COP(=O)(O)OP(=O)(O)O)[C@@H](O)[C@H]1O [ADP]
MurG [2]
  IC50: 1260 ± 300 µM
MurG [3]
  Signal change at 25 μM (drop in fluorescence polarization): <10%
MurG [3]; displacement of F1 from MurG
  Kd: 88.2 ± 26.9 µM

## O=C(O)CN1C(=O)/C(=C\c2cc(Cl)cc(Br)c2O)SC1=S [Compound 2]
PBP1b; read-out: IC50 PBP1b
  IC50: > 100 µM
OGT; read-out: IC50 OGT
  IC50: > 100 µM
MurG [1]
  IC50: 3.4 µM
GtfB
  IC50: 4 µM

## CC(=O)N[C@H]1[C@@H](OP(=O)(O)OP(=O)(O)OC[C@H]2O[C@@H](n3ccc(=O)[nH]c3=O)[C@H](O)[C@@H]2O)O[C@H](CO)[C@H](O)[C@@H]1O [UDP-GalNAc]
MurG [2]
  IC50: > 1000 µM
MurG [3]
  Signal change at 25 μM (drop in fluorescence polarization): 10%
MurG [3]; displacement of F1 from MurG
  Kd: 73.1 ± 14.1 µM

## O=C1/C(=C2/C(=O)N(Cc3ccccc3)c3ccc(Br)cc32)SC(=S)N1CCS(=O)(=O)O [Compound 3]
PBP1b; read-out: IC50 PBP1b
  IC50: > 100 µM
OGT; read-out: IC50 OGT
  IC50: > 100 µM
MurG [1]
  IC50: 3.5 µM
GtfB
  IC50: 15 µM

## CC(C)(C)c1ccc(OCCOc2cccc(C=C3C(=O)NC(=S)NC3=O)c2)cc1 [Compound 6]
PBP1b
  IC50: > 100 µM
OGT
  IC50: > 100 µM
MurG [1]
  IC50: 4 µM
GtfB
  IC50: 100 µM

## O=c1ccn([C@@H]2O[C@H](COP(=O)(O)OP(=O)(O)O)[C@@H](O)[C@H]2O)c(=O)[nH]1 [UDP, uridine diphosphate]
MurG [2]
  IC50: 65 ± 1 µM
MurG [1]; read-out: inhibition of MurG reaction (drop in product formation)
  inhibition at 5 µM: 50%
MurG [3]; 25 μM UDP control well
  polarization reading relative to wells containing only MurG and labeled donor: approximately 50%
MurG [3]
  Signal change at 25 μM (drop in fluorescence polarization): 50%
  Kd: 2.6 ± 0.2 µM

## CC(=O)N[C@H]1[C@@H](OP(=O)(O)OP(=O)(O)OC[C@H]2O[C@@H](n3ccc(=O)[nH]c3=O)[C@H](O)[C@@H]2O)O[C@H](CO)[C@@H](O)[C@@H]1O [UDP-GlcNAc, UDP-N-acetylglucosamine]
MurG [3]; displacement of F1 from MurG
  Kd: 1.8 ± 0.2 µM

## CC1CCN(CN2C(=O)/C(=C\c3ccc(C(C)(C)C)cc3)SC2=S)CC1 [Compound 1, 5-(4-tert-Butyl-benzylidene)-3-(4-methyl-piperidin-1-ylmethyl)-2-thioxo-thiazolidin-4-one]
PBP1b; read-out: IC50 PBP1b
  IC50: > 100 µM
OGT; read-out: IC50 OGT
  IC50: > 100 µM
MurG [1]
  IC50: 1.4 µM
  inhibition pattern with respect to UDP-GlcNAc: competitive inhibitors
GtfB
  IC50: 15 µM

## O=c1ccn([C@@H]2O[C@H](COP(=O)(O)O)[C@@H](O)[C@H]2O)c(=O)[nH]1 [UMP]
MurG [2]
  IC50: 600 ± 50 µM
MurG [3]
  Signal change at 25 μM (drop in fluorescence polarization): <10%
MurG [3]; displacement of F1 from MurG
  Kd: 99.6 ± 12.2 µM
